Measured values taken from patent publication US11932633B2, “KRas G12C inhibitors” (Mirati Therapeutics, Inc., priority 2018, dated 2024).
Structures can show the parent of a compound that is named as a salt.

Tests used:
[1] = target: T1, KRas G12C (Homo sapiens, UniProt P01116, C118S/C51S/C80L/G12C); assay: KRas G12C Modification Assay (LCMS detection of covalent adduct); type: binding; details: 5 μM concentration for 3 hours
T1 construct: GDP-loaded K-Ras (1-169) G12C, C51S, C80L, C118S
Experimental: This Example illustrates that exemplary compounds of the present invention covalently bind to KRas G12C using a LCMS assay to detect a covalent adduct of the exemplary compound and KRAS G12C.
The protein concentration of GDP-loaded K-Ras (1-169) G12C, C51S, C80L, C118S and GTP-loaded K-Ras (1-169) G12C, C51S, C80L, C118S, Q61H was adjusted to 2 μM in K-Ras Assay Buffer (25 mM HEPES, 150 mM NaCl, 5 mM MgCl2, and 10 mM Octyl β-glucopyranoside at pH 7.5). A 10 μL aliquot of each protein solution was transferred to a 384 well microtiter plate. Initial compound stocks were generated at fifty times their desired final assay concentration in DMSO.
Exemplary compounds of formula (I) were diluted 25-fold into K-Ras Assay Buffer to a final of two times their final concentration. A 10 μL aliquot of each diluted compound solution was added to each of the protein solutions in the microtiter plate to initiate reaction. Typical final compound concentrations were 3.0, 5.0 and 25.0 μM. At each time point, the reactions were quenched with 20 μL of a 25 mM acetic acid solution. Usual assay endpoints were 15, 180 and 1440 minutes. Once all reactions were quenched, the plates were heat sealed and the samples were injected into a LC/MS system for data acquisition.
Data collection took place on an Agilent 6520 Q-TOF Accurate Mass Spectrometer. Samples were injected in their liquid phase onto a C-3 reverse phase column to remove assay buffer and prepare the samples for mass spectrometer. The proteins were eluted from the column using an acetonitrile gradient and fed directly into the mass analyzer. Initial raw data analysis took place in Agilent MassHunter software immediately post data acquisition.
Raw data analysis of the intact protein was exclusively a deconvolution of the multiple charge states of each protein in solution using a maximum entropy deconvolution provided in Mass Hunter. To minimize complexity, only the data over limited mass ranges were considered for analysis, with a minimum of one Dalton mass step intervals. The heights of all masses identified during raw data analysis were exported to be further analyzed in Spotfire® data analysis software.
Final data analysis was a multistep process in the Spotfire® data analysis software package. Briefly, each protein mass was calculated as a percent of the total signal of that sample, that percentage was normalized to the percentage of signal of the protein in the absence of reactive compounds. Those normalized signals were reported as normalized percent of control (POC). […] Key: N.D. is not determined.

[2] = target: T2, KRas G12C (Homo sapiens, UniProt P01116, G12C); assay: Cellular inhibition of KRas G12C measured by Phospho-ERK in NCI-11358 cells; type: cell-based; details: NCI-11358 cells (ATCC CRL-5807), 3 hours; read-out: Inhibition (IC50, pERK (Thr202/Tyr204) signal normalized with GAPDH)
T2 construct: NCI-11358 cells (ATCC CRL-5807) express KRas G12C; host or cells: NCI-H358
Experimental: The cellular inhibition of KRAs G12C by exemplary compounds of the present invention was determined by measuring the amount of a downstream marker of KRas activity, phosphorylated ERK (“Phospho-ERK”).
NCI-11358 cells (ATCC CRL-5807) express KRas G12C and were grown in RPMI medium supplemented with 10% fetal bovine serum, penicillin/streptomycin and 10 mM HEPES. Cells were plated in poly-D-Lysine coated 96-well plates at a concentration of 50,000 cells/well and allowed to attach for 8-12 hours. Diluted compounds were then added at a final concentration of 0.5% DMSO. After 3 hours, the medium was removed, 150 μL of 4% formaldehyde was added and the plates were incubated for 20 minutes. The plates were washed with PBS, and permeabilized using 150 μL of ice cold 100% methanol for 10 minutes. Non-specific antibody binding to the plates was blocked using 100 μL Licor Blocking Buffer (Li-Cor Biotechnology, Lincoln NE) for 1 hour at room temperature. Positive control samples and samples lacking cells were parallel processed with test samples as standards.
The amount Phospho-ERK was determined using an antibody specific for the phosphorylated form of ERK and compared to the amount of GAPDH. Primary antibodies used for detection were added as follows: Phospho-ERK (Cell Signaling cs9101) diluted 1:500 and GAPDH (Millipore MAB374) diluted 1:5000 in Licor block+0.05% Tween 20. The plates were incubated for 2 hours at room temperature. The plates were washed with PBS+0.05% Tween 20.
Secondary antibodies used to visualize primary antibodies were added as follows: Anti-rabbit-680 diluted 1:1000 and Anti-mouse-800 diluted 1:1000 in Licor Block+0.05% Tween 20 and incubated for 1 hour at room temperature. The plates were washed with PBS+0.05% Tween 20. A 100 μL aliquot of PBS was added to each well and the plates were read on a LICOR AERIUS plate reader.
The pERK (Thr202/Tyr204) signal was normalized with the GAPDH signal and percent of DMSO control values were calculated. IC50 values were generated using a 4 parameter fit of the dose response curve. Key: “A”: ≤1 μM, “B”>1 μM and N.D.=not determined.

POC (normalized percent of control, covalent modification of KRas G12C) ([1]; 5 µM) | IC50 [2] | POC (normalized percent of control, covalent modification of KRas G12C) [1] | SMILES
53% of control | > 1000 nM |  | C=CC(=O)N1CC(CN2C(=O)COc3cc(-c4c(C)ccc5[nH]ncc45)c(Cl)cc32)C1 (single isomer, unassigned) [Example 10]
27% of control | > 1000 nM |  | C=CC(=O)N1CC(CN2C(=O)[C@H](CCN(C)C)Oc3cc(-c4c(C)ccc5[nH]ncc45)c(Cl)cc32)C1 (single isomer, unassigned) [Example 36]
 | ≤ 1000 nM | 104% of control | C=CC(=O)N1CC(CN2C(=O)COc3cc(-c4cc(O)cc5ccccc45)c(Cl)cc32)C1 [Example 1, 4-((1-acryloylazetidin-3-yl)methyl)-6-chloro-7-(3-hydroxynaphthalen-1-yl)-2H-benzo[b][1,4]oxazin-3(4H)-one]
 | > 1000 nM | 94% of control | C=CC(=O)N1CC(CN2C(=O)C(CC(C)C)Oc3cc(-c4cc(O)cc5ccccc45)c(Cl)cc32)C1 (stereo not drawn) [Example 2, 4-((1-acryloylazetidin-3-yl)methyl)-6-chloro-7-(3-hydroxynaphthalen-1-yl)-2-isobutyl-2H-benzo[b][1,4]oxazin-3(4H)-one]
 | ≤ 1000 nM | 104% of control | C=CC(=O)N1CC(CN2C(=O)C(CN3CCCC3)Oc3cc(-c4cc(O)cc5ccccc45)c(Cl)cc32)C1 (stereo not drawn) [Example 4, 4-((1-acryloylazetidin-3-yl)methyl)-6-chloro-7-(3-hydroxynaphthalen-1-yl)-2-(pyrrolidin-1-ylmethyl)-2H-benzo[b][1,4]oxazin-3(4H)-one]
 | > 1000 nM | 86% of control | C=CC(=O)N1CC(CN2C(=O)COc3c2ccc(-c2cc(O)cc4ccccc24)c3F)C1 [Example 6, 4-((1-acryloylazetidin-3-yl)methyl)-8-fluoro-7-(3-hydroxynaphthalen-1-yl)-2H-benzo[b][1,4]oxazin-3(4H)-one]
 | ≤ 1000 nM | 93% of control | C=CC(=O)N1CC(F)(CN2C(=O)COc3cc(-c4cc(O)cc5ccccc45)c(Cl)cc32)C1 [Example 13, 4-((1-acryloyl-3-fluoroazetidin-3-yl)methyl)-6-chloro-7-(3-hydroxynaphthalen-1-yl)-2H-benzo[b][1,4]oxazin-3(4H)-one]
 | > 1000 nM | 102% of control | C=CC(=O)N1CC(CN2C(=O)CSc3cc(-c4cc(O)cc5ccccc45)ccc32)C1 [Example 14, 4-((1-acryloylazetidin-3-yl)methyl)-7-(3-hydroxynaphthalen-1-yl)-2H-benzo[b][1,4]thiazin-3(4H)-one]
 | > 1000 nM | 97% of control | C=CC(=O)N1CC(CN2C(=O)COc3cc(-c4c(C)ccc5[nH]cnc45)c(Cl)cc32)C1 [Example 15, 4-((1-acryloylazetidin-3-yl)methyl)-6-chloro-7-(5-methyl-1H-benzo[d]imidazol-4-yl)-2H-benzo[b][1,4]oxazin-3(4H)-one trifluoroacetate salt]

More lines, now with the values behind:

SMILES | POC (normalized percent of control, covalent modification of KRas G12C) ([1]; 5 µM) | IC50 [2] | POC (normalized percent of control, covalent modification of KRas G12C) [1]
C=CC(=O)N1CC(CN2C(=O)COc3cc(-c4c(C)ccc5[nH]ncc45)c(Cl)cc32)C1 (single isomer, unassigned) [Example 11] | 96% of control | > 1000 nM | 
C=CC(=O)N1CC(CN2C(=O)[C@H](CCN(C)C)Oc3cc(-c4c(C)ccc5[nH]ncc45)c(Cl)cc32)C1 (single isomer, unassigned) [Example 35] | 86% of control | ≤ 1000 nM | 
C=CC(=O)N1CC(CN2C(=O)C(C3CCN(C)CC3)Oc3cc(-c4cc(O)cc5ccccc45)c(Cl)cc32)C1 (stereo not drawn) [Example 3, 4-((1-acryloylazetidin-3-yl)methyl)-6-chloro-7-(3-hydroxynaphthalen-1-yl)-2-(1-methylpiperidin-4-yl)-2H-benzo[b][1,4]oxazin-3(4H)-one] |  | ≤ 1000 nM | 91% of control
C=CC(=O)N1CC(CN2C(=O)C(CN3CCC(N(C)C)CC3)Oc3cc(-c4cc(O)cc5ccccc45)c(Cl)cc32)C1 (stereo not drawn) [Example 5, 4-((1-acryloylazetidin-3-yl)methyl)-6-chloro-2-((4-(dimethylamino)piperidin-1-yl)methyl)-7-(3-hydroxynaphthalen-1-yl)-2H-benzo[b][1,4]oxazin-3(4H)-one] |  | ≤ 1000 nM | 95% of control
C=CC(=O)N1CC(CN2C(=O)COc3cc(-c4cc(O)ccc4OC(F)(F)F)c(Cl)cc32)C1 [Example 7, 4-((1-acryloylazetidin-3-yl)methyl)-6-chloro-7-(5-hydroxy-2-(trifluoromethoxy)phenyl)-2H-benzo[b][1,4]oxazin-3(4H)-one] |  | > 1000 nM | 96% of control
C=CC(=O)N1CC(CN2C(=O)C(CN3CCN(C)CC3)Oc3cc(-c4cc(O)cc5ccccc45)c(Cl)cc32)C1 (stereo not drawn) [Example 8, 4-((1-acryloylazetidin-3-yl)methyl)-6-chloro-7-(3-hydroxynaphthalen-1-yl)-2-((4-methylpiperazin-1-yl)methyl)-2H-benzo[b][1,4]oxazin-3(4H)-one bis(2,2,2-trifluoroacetate)] |  | ≤ 1000 nM | 87% of control
C=CC(=O)N1CC(CN2C(=O)COc3cc(-c4cc(O)cc5ccccc45)ccc32)C1 [Example 12, 4-((1-acryloylazetidin-3-yl)methyl)-7-(3-hydroxynaphthalen-1-yl)-2H-benzo[b][1,4]oxazin-3(4H)-one] |  | > 1000 nM | 94% of control
C=CC(=O)N1CC(CN2C(=O)COc3c2cc(Cl)c(-c2cc(O)cc4ccccc24)c3F)C1 [Example 16, 4-((1-acryloylazetidin-3-yl)methyl)-6-chloro-8-fluoro-7-(3-hydroxynaphthalen-1-yl)-2H-benzo[b][1,4]oxazin-3(4H)-one] |  | > 1000 nM | 100% of control
C=CC(=O)N1CC(C)(CN2C(=O)COc3cc(-c4cc(O)cc5ccccc45)c(Cl)cc32)C1 [Example 17, 4-((1-acryloyl-3-methylazetidin-3-yl)methyl)-6-chloro-7-(3-hydroxynaphthalen-1-yl)-2H-benzo[b][1,4]oxazin-3(4H)-one] |  | > 1000 nM | 85% of control
